According to patent publication US20150132342A1, “NOVEL IMMUNE ACTIVATORS: SUBSTITUTE 4-AMINOQUINAZOLINES” (The Regents of the University of California, priority 2013, published 2015):

Assays:
Format in all cases: cell-based
[1] = target: T1, TLR4/MD-2/CD14 (Homo sapiens, UniProt O00206+Q9Y6Y9); assay: hTLR4 HEK Blue reporter cells, NF-κB SEAP secretion (QuantiBlue OD630)
T1 construct: host or cells: HEK293 (HEK Blue hTLR4)
Protocol: In vitro assays using TLR reporter cell lines. Murine or humanTLR4 HEK Blue™ cells (Invivogen, 2.5×10^4 cells per well of a 96 well plate), or NF-κB/SEAPorter™ HEK 293 cells (Imgenex, San Diego, Calif.) for human TLR2, TLR3, TLR5, TLR7, TLR8, or TLR9 (5×10^4 cells per well of 96 well plate) were incubated with graded doses of the test compound. The culture supernatants were harvested after a 20-24 h incubation period. Secreted alkaline phosphatase (SEAP) activity in the supernatants was determined by a colorimetric assay, using either the SEAPorter Assay Kit (Imgenex, San Diego, Calif.), with absorbance read at 405 nm, or QuantiBlue (Invivogen), with absorbance read at 630 nm. In some experiments, graded concentrations of LPS-RS ([…], Invivogen) were used to test TLR4-specific binding of the hit compound.

[2] = system: human PBMC; assay: IL-8 release in human PBMC (ELISA)
Protocol: In vitro activities in human peripheral blood mononuclear cells (PBMC). Human PBMC were isolated from buffy coats obtained from the San Diego Blood Bank (San Diego, Calif.) as described previously.^5,6 PBMC (1×10^6/mL) were incubated with various compounds in complete RPMI (Omega Scientific) for 18 h at 37° C., 5% CO2 and culture supernatants were collected. The levels of IL-8 in the supernatants were determined by ELISA (BD Biosciences).

[3] = system: human PBMC; assay: Type I IFN release by hPBMC measured in L929-ISRE luciferase reporter cells; details: 10 μM, overnight; LPS 10 ng/mL comparator
Protocol: Type I interferon (IFN) assay. L929 cells stably expressing an IFN sensitive response element (ISRE) luciferase reporter construct were kindly provided by Dr. B. Beutler (UT Southwestern, Dallas, Tex.)^7. The bioactivity oftype I IFN in hPBMC supernatants was measured by luciferase assay using L929-ISRE cells as described previously.^7 L929-ISRE cells were plated at 5×10^4 cells per well inDulbecco's Modified Eagle Medium (Life Technologies) supplemented with 10% FCS, 100 U/mL penicillin and 100 μg/mL streptomycinin a 96-well white-walled clear-bottom plate and incubated overnight. Thus, 50 μL of supernatant was incubated with L929-ISRE cells in 50 μL of DMEM for 6 h. The luciferase activities were measured by GloBrightLuciferase Assay Buffer (Promega, Madison, Wis.).

[4] = system: human PBMC; assay: CD80 and CD83 expression in CD11c+ HLA-DR+ human PBMC (flow cytometry); details: 5 μM overnight; CD11c+HLA-DR+ gated population
Protocol: FIG. 2. Compound 1a induces type I IFN and expression of co-stimulatory molecules. A) Human PBMC were incubated with compound 1a (10 μM), LPS (10 ng/mL), or vehicle overnight. The release of type I IFN in the culture supernatants was measured by luciferase release in L929-ISRE reporter cells. Data shown are mean±SEM of triplicates. B) Compound 1a- or vehicle-treated wild type or Tlr4^−/−mBMDC were stained for CD11c and either CD40, CD80, or CD86. The expression levels of CD40, CD80, or CD86 were evaluated in the gated CD11c^+ population. DMSO 0.5% served as the vehicle control. C) Human PBMC were incubated with compound 1a (5 μM) overnight. CD80 and CD83 expression in gated CD11c^+ HLA-DR^+ population was analyzed by flow cytometer. Data are representative of two independent experiments showing similar results.
To evaluate whether treatment of DCs with this compound can induce maturation in these cells, mBMDC prepared from wild type or TLR4 deficient mice were exposed to compound 1a and then assayed for expression of co-stimulatory molecules CD40, CD80, and CD86 in the CD11c+ population (FIG. 2B). […] Induction of co-stimulatory molecules by compound 1a was also confirmed in human PBMC.

[5] = system: mouse BMDC; assay: MTT viability of mouse BMDC; details: 10 μM, 18 h incubation
[6] = target: T2, human TLR4/MD-2 (Homo sapiens, UniProt O00206+Q9Y6Y9); assay: BMDM from transgenic mice expressing human TLR4/MD-2 (IL-6, IP-10); details: BMDM from human TLR4/MD-2 transgenic mice deficient for murine TLR4/MD-2
T2 construct: expressed in transfected cells; host or cells: bone marrow derived macrophages of human TLR4 transgenic mice on a murine TLR4/MD-2 null C57BL/6 background (gift of Dr. L. Hajjar)
T2 sequence (O00206 24-839): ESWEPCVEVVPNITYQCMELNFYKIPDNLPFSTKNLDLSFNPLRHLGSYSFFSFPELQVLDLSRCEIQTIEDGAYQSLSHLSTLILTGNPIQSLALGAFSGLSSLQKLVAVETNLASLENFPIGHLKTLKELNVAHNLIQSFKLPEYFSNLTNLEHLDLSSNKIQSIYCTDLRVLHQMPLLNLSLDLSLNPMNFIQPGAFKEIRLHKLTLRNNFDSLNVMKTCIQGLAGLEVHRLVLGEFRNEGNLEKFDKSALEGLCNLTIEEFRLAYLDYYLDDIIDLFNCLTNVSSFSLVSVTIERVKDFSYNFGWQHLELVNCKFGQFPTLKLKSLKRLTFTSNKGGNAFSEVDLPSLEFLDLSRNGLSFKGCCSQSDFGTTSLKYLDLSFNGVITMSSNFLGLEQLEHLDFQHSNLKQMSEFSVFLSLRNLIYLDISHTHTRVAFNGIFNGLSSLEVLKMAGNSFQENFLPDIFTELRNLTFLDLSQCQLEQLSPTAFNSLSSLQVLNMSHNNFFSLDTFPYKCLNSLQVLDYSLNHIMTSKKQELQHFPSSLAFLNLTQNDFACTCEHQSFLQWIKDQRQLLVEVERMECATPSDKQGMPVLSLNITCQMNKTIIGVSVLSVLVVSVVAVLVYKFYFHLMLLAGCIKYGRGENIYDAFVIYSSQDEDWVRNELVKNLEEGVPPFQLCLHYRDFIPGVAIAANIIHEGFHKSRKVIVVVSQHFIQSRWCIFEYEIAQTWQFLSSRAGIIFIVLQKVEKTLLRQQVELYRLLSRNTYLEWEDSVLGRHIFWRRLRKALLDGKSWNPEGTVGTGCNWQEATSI
T2 sequence (Q9Y6Y9 19-160): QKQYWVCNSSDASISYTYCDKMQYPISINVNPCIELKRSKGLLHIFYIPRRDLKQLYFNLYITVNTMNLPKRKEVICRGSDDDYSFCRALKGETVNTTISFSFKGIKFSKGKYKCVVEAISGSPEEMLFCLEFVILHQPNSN
Source text: Animals. Seven to 9 week-old C57BL/6 (wild type, WT) and Cd14^−/− (C57BL/6 background) mice were purchased from the Jackson Laboratories (Bar Harbor, Mass.). Tlr4^−/− mice (C57BL/6 background) were a gift from Dr. Shizuo Akira (Osaka University, Japan) and were backcrossed for 10 generations onto the C57BL/6 background at University of California, San Diego (UCSD). MD-2^−/− mice (C57BL/6 background) were originally generated by Dr. K. Miyake (University of Tokyo, Tokyo, Japan) and were kindly provided by Dr. L. Hajjar (University of Washington, Seattle, Wash.). Human TLR4 transgenic mice on murine TLR4/MD-2 null C57BL/6 background were kindly provided by Dr. L. Hajjar.^3 All animal experiments were approved by the UCSD Institutional Animal Care and Use Committee.
In vitro cytokine induction in bone marrow derived dendritic cells (BMDC) and macrophages (BMDM). […] The levels of IL-6 or IP-10 in the culture supernatants were determined by ELISA (BD Biosciences, La Jolla, Calif.).^5 Finally, all levels of cytokine release were normalized to those of LPSstimulation within each experiment, set at 100.

T1 sequence (O00206 24-839): as the sequence (O00206 24-839) above
T1 sequence (Q9Y6Y9 19-160): as the sequence (Q9Y6Y9 19-160) above

- hTLR4 0.5 μM ([1]; 0.5 μM, Quantiblue OD630 of hTLR4 HEK Blue cells, normalized to LPS positive control=100): 49.1
- NF-κB activation induced by compound in presence of competitive antagonist LPS-RS ([1]; 10 μM compound, LPS-RS 12, 111, 1000 ng/mL, dose dependent): inhibited
- Activation of transgenic human TLR4/MD-2 complex relative to mouse TLR4/MD-2 [6]: to a greater extent
SMILES: CCOC(=O)c1nc(Nc2cc(Oc3ccccc3)cc([N+](=O)[O-])c2)c2ccccc2n1 [Compound 1a, Ethyl 4-((3-nitro-5-phenoxyphenyl)amino)quinazoline-2-carboxylate]
- IL-8 release (% of LPS control) at 0.5 µM ([2]; Homo sapiens, PBMC, 18 h, 0.5 μM, IL-8 release, normalized to LPS positive control=100): 22.2%
- Concentration inducing detectable levels of IL-8 ([2]; hPBMC, graded concentrations): below 1 μM
- IL-8 release in presence of polymyxin B ([2]; polymyxin B 10 μg/mL, overnight): not reduced
- Release of type I IFN [3]: comparable to that of LPS
- Expression of CD80 and CD83 [4]: increased expression of CD80 and CD83
- Viability by MTT assay [5]: 117±2.6%
